Columns and labels:
[1] = tested on: HAP1 MTAP-deleted cell line; experiment: SDMA in-cell western assay, HAP1 MTAP-deleted; settings: for IC50 / IC90: Homo sapiens; for IC50: HAP1, read-out: Hap1 MTAP deleted IC50, SDMA in-cell western assay, HAP1 MTAP-deleted cell line; for IC90: HAP1, read-out: Hap1 MTAP deleted IC90, SDMA in-cell western assay, HAP1 MTAP-deleted cell line; for Hap1 MTAP intact/deleted ratio: IC50 ratio between HAP1 MTAP-intact and HAP1 MTAP-deleted cell line, SDMA in-cell western assay
[2] = tested on: HAP1 MTAP-intact cell line; experiment: SDMA in-cell western assay, HAP1 MTAP-intact; settings: Homo sapiens, HAP1, read-out: Hap1 MTAP intact IC50, SDMA in-cell western assay, HAP1 MTAP-intact cell line
MTAP-deleted cell line = experiment: viability assay for the MTAP-deleted cell line; type: cell-based; settings: Homo sapiens, HAP1, viability assay

IC50 [1] [nM]	IC90 [1] [nM]	IC50 [2] [nM]	SMILES	Hap1 MTAP intact/deleted ratio [1]	IC50 (MTAP-deleted cell line) [nM]
< 5	< 75	5 to 50	C[C@H]1CC[C@H](c2ccc(CCN(C)C)cc2)N(C(=O)C(=O)Nc2cnc(N)c3c2cnn3C)C1 [Compound 202, N-(7-Amino-1-methyl-pyrazolo[3,4-c]pyridin-4-yl)-2-oxo-2-[(2R,5S)-2-[4-[2-(dimethylamino)ethyl]phenyl]-5-methyl-1-piperidyl]acetamide]	C (“C” indicates an IC50 ratio of less than 15 fold)	< 100
5 to 50	> 125	> 50	C[C@H]1CC[C@H](c2ccccc2)N(C(=O)C(=O)Nc2cnc(N)c3c2OCC3)C1 [Compound 214]	B (“B” indicates an IC50 ratio greater than or equal to 15 fold but lower than 30 fold)	100 to 1000
< 5	< 75	> 50	COc1cc([C@H]2CC[C@H](C)CN2C(=O)C(=O)Nc2cnc(N)c3cn[nH]c23)cc(C)n1 [Compound 219, N-(4-Amino-1H-pyrazolo[4,3-c]pyridin-7-yl)-2-oxo-2-[(2R,5S)-2-(2-methoxy-6-methyl-4-pyridyl)-5-methyl-1-piperidyl]acetamide]	A (“A” indicates an IC50 ratio greater than or equal to 30 fold)	< 100
5 to 50	> 125	> 50	COc1cc([C@@H]2CC[C@H](C)CN2C(=O)C(=O)Nc2cnc(N)c3cn[nH]c23)ccn1 [Compound 274]	B (“B” indicates an IC50 ratio greater than or equal to 15 fold but lower than 30 fold)	100 to 1000
5 to 50	> 125	> 50	CCOc1cc([C@@H]2CC[C@H](C)CN2C(=O)C(=O)Nc2cnc(N)c3cn[nH]c23)ccn1 [Compound 275]	C (“C” indicates an IC50 ratio of less than 15 fold)	100 to 1000

Source: patent publication US20250163048A1 (Tango Therapeutics, Inc., priority 2022, published 2025)
